Source: publication PMC10475017, “Design, synthesis, computational study and cytotoxic evaluation of some new quinazoline derivatives containing pyrimidine moiety” (Scientific Reports, 2023)

Columns and labels:
A549 cell line [1] = test: Annexin V/PI apoptosis detection by flow cytometry; type: cell-based, human; settings: 72 h
Protocol: Annexin V was applied to detect the phosphatidyl serin, which moved to outer membrane during apoptosis, and PI was used to distinguish live and dead cells.
After the incubation time, AnnexinV/PI staining using eBioscience™ Annexin V apoptosis detection kit (Invitrogen). The cells were gently harvested and washed once with 1X phosphate buffered saline (PBS), and once with 1000 μL 1X binding buffer. In the next step, the cells were suspended in 100 μL binding buffer containing 5 μL fluorescein isothiocyanate conjugated (FITC) Annexin V for 15 min and 5 μL Propodium Iodide (PI) solution. The cells were then acquired on BD FACS Calibur™ flow cytometry (BD Biosciences, San Jose, CA, USA) and apoptosis rates were calculated as the sum of early apoptosis and late apoptosis using Flowjo software.

A549 cell line [2] = test: Cell cycle analysis by PI flow cytometry; type: cell-based, human; settings: 72 h; for cell cycle S population: untreated cells 4.46%
Protocol: For this purpose, A549 cells were treated with two concentrations of 6n (10 and 15 μM) for 72 h (Fig. 6). […] A slight decrease in the G2/M population was also observed.
The effect of 6n was also assessed according to our previous protocol. Briefly, 1 × 10^5 A549 cells were seeded in a 24-well plate in […] complete cell culture media and after 24 h, were treated with two concentrations of 6n (10 and 15 μM). After 72 h, the cells were harvested and washed twice with cold 1X pbs and stabilized with cold ethanol (70%) in drop-wised manner while vortexing. After keeping one day in the freezer, the fixed cells were washed with 1X pbs and treated with a mixture of ribonuclease (10 µg/ml) (Sigma-Aldrich, Germany) to remove RNA, and Propidium Iodide (PI, 20 µg/ml) (Sigma-Aldrich, Germany) to stain DNA. The cells were acquired on BD FACS Calibur™ flow cytometry (BD Biosciences, San Jose, CA, USA). The data were analyzed with FlowJo software packages version 10.

Row | Structure (SMILES) | melting point | further results
1 | Cn1c(=O)cc(Cl)n(Cc2nc3ccc(Br)cc3c(=O)n2-c2cccc(Br)c2)c1=O [Compound 6e, 1-((6-Bromo-3-(3-Bromophenyl)-4-Oxo-3,4-Dihydroquinazolin-2-Yl)Methyl)-6-Chloro-3-Methylpyrimidine-2,4(1H,3H)-Dione] | 251 to 252 °C | 
2 | Cn1c(=O)cc(Cl)n(Cc2nc3ccc(Br)cc3c(=O)n2-c2ccc(F)c(Cl)c2)c1=O [Compound 6n, 1-((6-Bromo-3-(3-Chloro-4-Fluorophenyl)-4-Oxo-3,4-Dihydroquinazolin-2-Yl)Methyl)-6-Chloro-3-Methylpyrimidine-2,4(1H,3H)-Dione] |  | early apoptotic cells Q3 (Av pos/PI neg) (A549 cell line [1]; 5 µM): 2.61%; late apoptotic cells Q2 (Av pos/PI pos) (A549 cell line [1]; 5 µM): 21.2%; apoptotic death (sum of early and late apoptosis) (A549 cell line [1]; 15 µM): 65.08%; induction of apoptosis (in words) (A549 cell line [1]; 5, 10, 15 µM): significantly induced apoptotic death in the dose dependent manner; cell cycle S population (A549 cell line [2]; 10 μM): 8.91%; cell cycle S population (A549 cell line [2]; 15 μM): 11.6%; effect on cell cycle (in words) (A549 cell line [2]; 10 and 15 μM): could induce arrest at S-phase
3 | Cn1c(=O)cc(Cl)n(Cc2nc3ccc(Br)cc3c(=O)n2-c2cccc(Cl)c2)c1=O [Compound 6d, 1-((6-Bromo-3-(3-Chlorophenyl)-4-Oxo-3,4-Dihydroquinazolin-2-Yl)Methyl)-6-Chloro-3-Methylpyrimidine-2,4(1H,3H)-Dione] | 259 to 260 °C | 
4 | Cn1c(=O)cc(Cl)n(Cc2nc3ccc(Br)cc3c(=O)n2-c2cccc(F)c2)c1=O [Compound 6c, 1-((6-Bromo-3-(3-Fluorophenyl)-4-Oxo-3,4-Dihydroquinazolin-2-Yl)Methyl)-6-Chloro-3-Methylpyrimidine-2,4(1H,3H)-Dione] | 243 to 244 °C | 
5 | Cn1c(=O)cc(Cl)n(Cc2nc3ccc(Br)cc3c(=O)n2-c2cccc(C#N)c2)c1=O [Compound 6b, 3-(6-Bromo-2-((6-Chloro-3-Methyl-2,4-Dioxo-3,4-Dihydropyrimidin-1(2H)-Yl)Methyl)-4-Oxoquinazolin-3(4H)-Yl) Benzonitrile] | 255 to 257 °C | 
6 | Cn1c(=O)cc(Cl)n(Cc2nc3ccc(Br)cc3c(=O)n2-c2ccccc2)c1=O [Compound 6a, 1-((6-Bromo-4-Oxo-3-Phenyl-3,4-Dihydroquinazolin-2-Yl)Methyl)-6-Chloro-3-Methylpyrimidine-2,4(1H,3H)-Dione] | 246 to 248 °C | 

Continued, in another order:

Row | melting point | Structure (SMILES) | further results
7 | 225 to 226 °C | Cn1c(=O)cc(Cl)n(Cc2nc3ccc(Br)cc3c(=O)n2-c2ccc(Cl)cc2)c1=O [Compound 6g, 1-((6-Bromo-3-(4-Chlorophenyl)-4-Oxo-3,4-Dihydroquinazolin-2-Yl)Methyl)-6-Chloro-3-Methylpyrimidine-2,4(1H,3H)-Dione] | 
8 | 240 to 242 °C | Cn1c(=O)cc(Cl)n(Cc2nc3ccc(Br)cc3c(=O)n2-c2ccc(F)cc2)c1=O [Compound 6f., 1-((6-Bromo-3-(4-Fluorophenyl)-4-Oxo-3,4-Dihydroquinazolin-2-Yl)Methyl)-6-Chloro-3-Methylpyrimidine-2,4(1H,3H)-Dione] | 
